{
  "source": "patent US8076103B2",
  "about": "“Eukaryotic expression system for the incorporation of stable isotopes into proteins” (The Board of Trustees of the Leland Stanford Junior …, priority 2007, dated 2011)",
  "biological_target": "T1, human β2AR (Homo sapiens, UniProt P07550)",
  "T1 construct": "made in house; host or cells: Trichoplusia ni larvae orally infected with occluded recombinant baculovirus; crude membrane fraction",
  "T1 sequence (P07550 whole entry)": "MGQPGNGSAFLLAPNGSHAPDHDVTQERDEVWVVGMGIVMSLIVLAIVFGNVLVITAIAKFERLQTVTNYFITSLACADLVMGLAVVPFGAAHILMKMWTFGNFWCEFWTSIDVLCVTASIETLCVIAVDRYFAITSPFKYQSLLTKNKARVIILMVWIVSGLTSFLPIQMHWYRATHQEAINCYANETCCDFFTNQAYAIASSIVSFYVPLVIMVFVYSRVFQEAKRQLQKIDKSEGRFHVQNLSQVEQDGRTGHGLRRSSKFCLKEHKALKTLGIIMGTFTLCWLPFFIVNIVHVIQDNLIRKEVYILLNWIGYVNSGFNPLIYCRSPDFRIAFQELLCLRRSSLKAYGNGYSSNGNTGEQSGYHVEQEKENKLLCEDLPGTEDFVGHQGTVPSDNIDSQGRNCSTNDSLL",
  "assay": "Saturation binding of [^3H]-dihydroalprenolol to T. ni membranes expressing β2AR",
  "conditions": "4 days after oral infection",
  "experimental": "This vector was used to produce orally infectious occluded baculovirus as follows. Sf9 cells were infected with above vector and allowed to grow for approximately four days until their nuclei were filled with polyhedral inclusion bodies (PIBs). The cells were pelleted by centrifugation, and lysed by resuspension and douncing in SDS (0.5%). PIBs were pelleted from the lysate by a high-speed spin, washed with sodium chloride (500 mM), and resuspended in distilled water. T. ni larvae were infected with occluded baculovirus by applying drops of purified PIBs (˜10^7 PIBs per cube) to small cubes of insect diet. Newly molted 5th instar larvae (mass ˜100 mg) were starved for 6 hours and then permitted to feed on the infected diet. […] These larvae were frozen in liquid nitrogen and stored at −80° C. Larvae were subsequently lysed and a crude membrane fraction was prepared. Saturation binding was performed with [^3H]dihydroalprenolol, a βAR antagonist.",
  "data": [
    {"molecule": "CCCc1ccccc1OCC(O)CNC(C)C", "note": "(centres unmarked) [[^3H]-dihydroalprenolol]", "values": [
      {"measurement": "Bmax", "value": 16, "unit": "pmol/mg total protein"},
      {"measurement": "Kd", "value": 1.6, "unit": "nM"}
    ]}
  ]
}
